This is an account of results in PubChem BioAssay AID651650 (Sanford-Burnham Center for Chemical Genomics, 2012).

Activity calls are given as the source filed them.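 How the source made its calls: active means mean IC50 below 20 µM in each of the two panels, so potent in both; inactive means the rest.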 Some results are limits rather than exact numbers.

A word on the IC50: it is the concentration that inhibits the measured activity by half.

The target in the assay is Neuropilin-1 (Homo sapiens) (UniProt O14786). As to the kind of experiment: blockers of CendR peptide binding to NRP-1 – biochemical, FP and AlphaScreen panel, dose response (AID 651650). The conditions noted are these: NRP-1 b1b2 / RPARPAR peptide binding, FP or AlphaScreen. In general terms: Bead proximity is the source of the signal in Alpha formats.
Where [1] appears, read: AlphaScreen, run 1, individual panel run IC50.
The mark [2] stands for this setting: FP, run 1, individual panel run IC50.
[3] abbreviates: FP, run 2, individual panel run IC50.

Chain of Neuropilin-1 (Homo sapiens) (O14786 whole entry, looked up): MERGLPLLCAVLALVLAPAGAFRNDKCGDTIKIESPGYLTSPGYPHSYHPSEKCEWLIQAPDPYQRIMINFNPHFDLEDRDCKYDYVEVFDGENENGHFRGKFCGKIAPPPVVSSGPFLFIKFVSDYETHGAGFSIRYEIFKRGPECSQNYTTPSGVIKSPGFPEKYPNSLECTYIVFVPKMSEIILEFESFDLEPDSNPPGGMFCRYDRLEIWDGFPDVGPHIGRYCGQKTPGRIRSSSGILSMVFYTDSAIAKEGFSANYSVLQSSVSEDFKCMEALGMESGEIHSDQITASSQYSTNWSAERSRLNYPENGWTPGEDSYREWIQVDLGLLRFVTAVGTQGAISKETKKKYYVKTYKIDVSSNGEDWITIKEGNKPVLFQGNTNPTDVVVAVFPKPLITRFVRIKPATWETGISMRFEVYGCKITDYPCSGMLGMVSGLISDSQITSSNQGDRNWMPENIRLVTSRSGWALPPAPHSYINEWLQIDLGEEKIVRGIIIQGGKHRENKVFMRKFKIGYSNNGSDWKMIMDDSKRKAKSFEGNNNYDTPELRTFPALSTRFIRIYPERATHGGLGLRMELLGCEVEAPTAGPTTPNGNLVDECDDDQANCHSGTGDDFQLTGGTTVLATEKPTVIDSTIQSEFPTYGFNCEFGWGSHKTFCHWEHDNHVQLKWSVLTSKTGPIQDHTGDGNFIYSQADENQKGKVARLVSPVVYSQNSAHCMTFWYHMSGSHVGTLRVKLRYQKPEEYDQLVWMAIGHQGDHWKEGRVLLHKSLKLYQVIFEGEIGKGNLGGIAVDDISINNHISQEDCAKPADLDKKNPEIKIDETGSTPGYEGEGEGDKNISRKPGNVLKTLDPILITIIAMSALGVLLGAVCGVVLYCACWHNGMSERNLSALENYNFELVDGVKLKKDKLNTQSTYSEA

In the case of `CCN(CC(=O)NCc1cccs1)S(=O)(=O)c1ccc(C(C)C)cc1`, the IC50 (AlphaScreen, mean of runs) was > 100 µM (inactive); the half-inhibitory concentration (IC50) under setting [1] was more than 100 µM; the IC50 (FP, mean of runs) is > 95 µM (inactive); the concentration for half-maximal inhibition (IC50) under setting [2] is more than 95 µM; the half-inhibitory concentration (IC50) under setting [3] is more than 95 µM.

As for `Nc1ccc(C#Cc2c(-c3ccsc3)oc3ccc(N4CCOCC4)cc23)cc1`, the IC50 reads like this: (AlphaScreen, mean of runs) > 100 µM (inactive); under setting [1], more than 100 µM; (FP, mean of runs) > 95 µM (inactive); under setting [2], more than 95 µM; under setting [3], more than 95 µM.

`CC(=O)OC[C@@H]1CN(Cc2cccc(C(F)(F)F)c2)C[C@H](n2cnc3c(NCc4ccco4)ncnc32)O1`: the IC50 result (AlphaScreen, mean of runs) is “inactive”. In addition, the half-inhibitory concentration (IC50) runs as follows: under setting [1], 87.9 µM; (FP, mean of runs) > 95 µM (inactive); under setting [2], more than 95 µM; under setting [3], more than 95 µM.

Take `CC(=O)Oc1cc2c(c3ccccc13)CCC2=O`: the IC50 runs as follows: (AlphaScreen, mean of runs) > 100 µM (inactive); under setting [1], more than 100 µM; (FP, mean of runs) > 95 µM (inactive); under setting [2], more than 95 µM; under setting [3], more than 95 µM.

Turning to `CC(C)(C)n1nc(-c2ccc(F)cc2)c2c(N)ncnc21`, the IC50 by setting is: (AlphaScreen, mean of runs) > 100 µM (inactive); under setting [1], more than 100 µM; (FP, mean of runs) > 95 µM (inactive); under setting [2], more than 95 µM; under setting [3], more than 95 µM.

For `O=C(CCc1ccc(Oc2cc([N+](=O)[O-])cc([N+](=O)[O-])c2)cc1)N1CCCCCC1`, the half-inhibitory concentration (IC50) is 11.6 µM (AlphaScreen, mean of runs); 11.6 µM under setting [1]; > 95 µM (inactive) (FP, mean of runs); more than 95 µM under setting [2]; more than 95 µM under setting [3].

On to `C=CCN1C(=O)C2(C(C(=O)OCC)=C(N)Oc3ccccc32)c2c1c1ccccc1oc2=O` (stereo not given), for which the IC50 was > 100 µM (inactive) (AlphaScreen, mean of runs); more than 100 µM under setting [1]; > 95 µM (inactive) (FP, mean of runs); more than 95 µM under setting [2]; more than 95 µM under setting [3].

Turning to `CNC(=O)NC(=O)C(C)OC(=O)c1c(C)noc1C` (stereo not given), for the setting “AlphaScreen, mean of runs”, the IC50 entry is “inactive”. For the same compound, the IC50 under setting [1] came to 82 µM; the IC50 (FP, mean of runs) was > 95 µM (inactive); the IC50 under setting [2] was more than 95 µM; the IC50 under setting [3] was more than 95 µM.

For `O=C(COC(=O)c1ccccn1)c1ccc([N+](=O)[O-])cc1`, the IC50 (AlphaScreen, mean of runs) was > 100 µM (inactive); the IC50 under setting [1] is more than 100 µM; the IC50 (FP, mean of runs) was > 95 µM (inactive); the IC50 under setting [2] is more than 95 µM; the IC50 under setting [3] was more than 95 µM.

Take `C#CCOc1nc(C)cc(C)c1S(=O)(=O)c1ccccc1C`: the IC50 was > 100 µM (inactive) (AlphaScreen, mean of runs); more than 100 µM under setting [1]; > 95 µM (inactive) (FP, mean of runs); more than 95 µM under setting [2]; more than 95 µM under setting [3].

`CCOC(=O)c1ccc2[nH]c(C)c(C)c2c1`: the IC50 was > 100 µM (inactive) (AlphaScreen, mean of runs); more than 100 µM under setting [1]; > 95 µM (inactive) (FP, mean of runs); more than 95 µM under setting [2]; more than 95 µM under setting [3].

For `CCCCCCCN1C(Nc2ccccc2)=NC[C@@H]1Cc1ccccc1`, the IC50 runs as follows: (AlphaScreen, mean of runs) > 100 µM (inactive); under setting [1], more than 100 µM; (FP, mean of runs) > 95 µM (inactive); under setting [2], more than 95 µM; under setting [3], more than 95 µM.

As for `COC(=O)C1=C(c2cccc(C#N)c2)C[C@@H]2CC[C@H]1N2C(=O)NCCO`, the IC50 runs as follows: (AlphaScreen, mean of runs) > 100 µM (inactive); under setting [1], more than 100 µM; (FP, mean of runs) > 95 µM (inactive); under setting [2], more than 95 µM; under setting [3], more than 95 µM.

Take `C=CCN(CC=C)C(=O)C1CC(=O)N(c2ccc(Br)cc2)C1` (stereo not given): the IC50 reads like this: (AlphaScreen, mean of runs) > 100 µM (inactive); under setting [1], more than 100 µM; (FP, mean of runs) > 95 µM (inactive); under setting [2], more than 95 µM; under setting [3], more than 95 µM.

Regarding `Cc1cc(NC(=O)COC(=O)c2ccc(C)c(C)c2)no1`, the IC50 runs as follows: (AlphaScreen, mean of runs) > 100 µM (inactive); under setting [1], more than 100 µM; (FP, mean of runs) > 95 µM (inactive); under setting [2], more than 95 µM; under setting [3], more than 95 µM.
